Experimental findings from US5578567A, “Nasal pharmaceutical composition” (Sandoz Ltd., priority 1990, dated 1996) are described below.

The nature of this data set: bioavailability study, serum [1-38]hPTH by radioimmunoassay. The format is in vivo, rhesus monkeys. The note with it: monkeys, nasal administration. As to the method:
Compositions of Examples 1A, 6 and 9 are administered nasally to rhesus monkeys (n=5) at a dose of 100 μg/kg [1-38]hPTH. A reference composition comprising
and buffered to pH 5.5 with Na2 HPO4 /citric acid is administered i.v. at a dose of 10 μg/kg.
Blood is taken after 10, 20, 30, 45, 60, 90, 240 and 360 min after administration and stored deep frozen at -80° C. until analysed. [1-38]hPTH concentrations in serum are analysed using radioimmunoassay techniques providing a limit of detection of 0.2-0.1 ng/ml. In addition urine is collected and stored deep frozen at -80° C. until analysis of cAMP by RIA techniques.

With `CC[C@H](C)[C@H](NC(=O)[C@H](CCC(=O)O)NC(=O)[C@H](CO)NC(=O)[C@@H](NC(=O)[C@@H](N)CO)C(C)C)C(=O)N[C@@H](CCC(N)=O)C(=O)N[C@@H](CC(C)C)C(=O)N[C@@H](CCSC)C(=O)N[C@@H](Cc1c[nH]cn1)C(=O)N[C@@H](CC(N)=O)C(=O)N[C@@H](CC(C)C)C(=O)NCC(=O)N[C@@H](CCCCN)C(=O)N[C@@H](Cc1c[nH]cn1)C(=O)N[C@@H](CC(C)C)C(=O)N[C@@H](CC(N)=O)C(=O)N[C@@H](CO)C(=O)N[C@@H](CCSC)C(=O)N[C@@H](CCC(=O)O)C(=O)N[C@@H](CCCNC(=N)N)C(=O)N[C@H](C(=O)N[C@@H](CCC(=O)O)C(=O)N[C@@H](Cc1c[nH]c2ccccc12)C(=O)N[C@@H](CC(C)C)C(=O)N[C@@H](CCCNC(=N)N)C(=O)N[C@@H](CCCCN)C(=O)N[C@@H](CCCCN)C(=O)N[C@@H](CC(C)C)C(=O)N[C@@H](CCC(N)=O)C(=O)N[C@@H](CC(=O)O)C(=O)N[C@H](C(=O)N[C@@H](Cc1c[nH]cn1)C(=O)N[C@@H](CC(N)=O)C(=O)N[C@@H](Cc1ccccc1)C(=O)N[C@H](C(=O)N[C@@H](C)C(=O)N[C@@H](CC(C)C)C(=O)NCC(=O)O)C(C)C)C(C)C)C(C)C` [[1-38]hPTH, hPTH[1-38]], the “serum levels reached, based on serum concentration and cumulative urinary excretion” value is “therapeutic [1-38]hPTH serum levels are achieved”.
